From patent US7083667B2, “Colorant compound, ink, ink tank, recording unit, recording apparatus and recording process” (Canon Kabushiki Kaisha, priority 2004, dated 2006)

Assay: Determination of solubility in chloroform at room temperature
Type: physicochemical
Settings: for Solubility in chloroform (in words): nonpolar solvent; for Solubility: in chloroform, room temperature
Experimental: Determination of Solubility
With respect to Colorant Compounds (5) to (16) obtained above, solubility in chloroform at room temperature was determined.

Row | Solubility in chloroform (in words) | Solubility [% by mass] | SMILES
1 | not dissolved |  | Cc1cccc(C)c1N=c1ccc2c(-c3ccccc3S(=O)(=O)O)c3ccc(Nc4c(C)ccc(S(=O)(=O)[O-])c4C)cc3oc-2c1.[Na+] [C.I. Acid Red 289, reference compound]
2 |  | 10.7 | CCOC(=O)c1ccccc1-c1c2cc/c(=N\c3c(C)cccc3C)cc-2oc2cc(Nc3c(C)cccc3C)ccc12.Cl [Compound (5)]
3 | higher solubility | 20.5 | CCOC(=O)c1ccccc1-c1c2cc/c(=N\c3c(C)cccc3C)cc-2oc2cc(Nc3c(C)cccc3C)ccc12 [Compound (6)]
